Where “and” joins values, the source holds several entries; their conditions need not be identical. Identical values can stand only once. Entries after “also recorded” stand apart in the source; their conditions may differ. Where no end group is shown, it is not given here. Side-chain parts run from the residue outwards. microbubble albumin shell = not defined here
B1: MBESEL: polymer/albumin double-shell microbubble bearing biotinylated peptide AF10166 (E-selectin targeting peptide) via biotin-streptavidin bridging (peptide)
peptide: DITWDQLWDLMK
modifications: also: biotinylated, site not given here, held on microbubble shell by biotin-streptavidin bridging
notes: The peptide stood in the assays as many copies on a gas-filled microbubble (outer shell crosslinked human albumin, inner layer PDLLA); streptavidin and albumin shell are not; also called E-selectin targeted microbubble; MBEsel (biotin-streptavidin linker)
B2: MB Esel(MAL): polymer/albumin double-shell microbubble bearing the E-selectin targeting peptide with one N-terminal cysteine, joined by a thioether bond … (peptide)
peptide: C([BM(PEG)3-microbubble albumin shell])DITWDQLWDLMK
modifications: reading uncertain; also: thioether-conjugated to polymer/albumin microbubble
notes: also called microbubble Esel(MAL); E-sel target MB (Mal)

What was measured:
E-selectin = molecular target: T1, E-selectin (Rattus norvegicus, UniProt P98105); assay: Ultrasound molecular imaging in rat myocardial ischemia-reperfusion model; type: in vivo; conditions: for Contrast enhancement of postischemic myocardium (in words): 4 h after reperfusion, 3 min after MB injection
T1 construct: Immunofluorescent staining in all rats consistently confirmed microvascular E-selectin and ICAM-1 expression in postischemic myocardium; from tissue
T1 sequence (P98105 22-549): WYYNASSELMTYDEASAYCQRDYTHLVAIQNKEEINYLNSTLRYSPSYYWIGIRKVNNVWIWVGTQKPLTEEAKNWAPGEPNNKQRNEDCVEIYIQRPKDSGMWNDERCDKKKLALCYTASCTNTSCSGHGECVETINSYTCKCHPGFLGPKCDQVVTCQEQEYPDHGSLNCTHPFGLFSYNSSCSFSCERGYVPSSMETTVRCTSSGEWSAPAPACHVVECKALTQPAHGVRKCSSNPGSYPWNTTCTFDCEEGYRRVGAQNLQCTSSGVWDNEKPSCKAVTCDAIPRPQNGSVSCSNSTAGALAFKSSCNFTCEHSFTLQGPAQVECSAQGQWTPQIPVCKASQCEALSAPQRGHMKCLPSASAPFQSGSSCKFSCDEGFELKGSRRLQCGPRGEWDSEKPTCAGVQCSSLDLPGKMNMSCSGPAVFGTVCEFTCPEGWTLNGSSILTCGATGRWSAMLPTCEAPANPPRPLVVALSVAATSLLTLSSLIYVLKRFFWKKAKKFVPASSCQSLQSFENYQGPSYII
Experimental: (§1) Targeted biodegradable polymer MB (3.4±1.3μm) were prepared bearing a 12-mer synthetic peptide on the surface with specific E-selectin affinity (MBESEL). See, FIG. 7. Control MB had scrambled peptide (MBCTL) or non-specific IgG (MBIgG). MB adhesion to cultured rat endothelial cells (EC) was assessed in a parallel plate flow system (n=3/condition). Intravital microscopy of rat cremaster microcirculation was performed after i.v. injection of each MB type under basal or activated conditions (scrotal TNF 5μg) (n=3 rats/condition). To determine if binding events could be imaged, 6 rats had 15 min coronary artery occlusion. After 4 hrs reflow, each rat received separate i.v. boluses of MBESEL, MBCTL, and MBIgG. Non-linear echo imaging was performed 3 and 3.5 min later. Videointensity (VI) differences between the 2 time points was attributed to target-specific signal.
An open chest rat model of myocardial ischemia-reperfusion (n=6) was performed where the left anterior descending coronary artery was occluded for 15 minutes then reperfused. See, FIG. 11. At 4 hrs of reflow, the rat received separate i.v. injections of MBE-SEL or MBCTL (2.5×10^7 MBs). Triggered ultrasound imaging (8 MHz, MI 0.6, Sequoia CPS, Siemens) was performed 3 min after injection, followed by 5 destruction frames (MI 1.9) and a second imaging frame (MI 0.6) at 3.5 minutes. The videointensity difference between the two imaging frames was attributed to microbubble adhesion. See, FIG. 12.
(§2) All protocols were approved by the Institutional Animal Care and Use Committee at the University of Pittsburgh. […] (Sprague Dawley, Harlan Laboratories, Indianapolis, Ind.) were anesthetized with intraperitoneal sodium pentobarbital (50 mg/kg) and maintained with 1.5 to 2.0% inhaled isoflurane. Body temperature was maintained at 37° C. with a heating pad. The internal jugular vein was cannulated with a 20-gauge catheter for MB injection.
A previously described rat model of acute myocardial ischemia and reperfusion was used for UMI of E-selectin overexpression as a marker of ischemic memory.^3 Anesthetized rats (n=6, 150-200 g) were intubated and mechanically ventilated. A lateral thoracotomy was performed, and the left anterior descending (LAD) coronary artery was occluded for 15 minutes and then reperfused. After 4 hours of reflow, each rat received separate intravenous injections of MBESEL, MBCTL, and MBIgG in random order (2.5×10^7 MBs in […] followed by a […]), and ultrasound imaging was performed as described below.
Thereafter, high mechanical index (MI) burst pulses were sent to ensure that all adhered and freely circulating MBs were destroyed prior to any subsequent injection. Typically, subsequent injections were given 5 minutes after MBs could no longer be detected in the left ventricular cavity on ultrasound imaging. The MB dosage was empirically chosen based on pilot studies assessing myocardial enhancement from various doses. At the end of the experiment, the LAD coronary artery was reoccluded, nontargeted myocardial contrast echocardiography (MCE) using plain lipid MBs was performed to delineate the risk area, and the rat was euthanized using pentobarbital overdose. Open-chest MCE in the short-axis view was performed using a contrast-specific imaging mode combining phase and amplitude modulation of the transmit signal (Cadence Contrast Pulse Sequencing, Sequoia 512, Siemens Ultrasound, Mountain View, Calif.) from a linear array transducer (15 L8) operating at 8 MHz. Probe position, dynamic range, gain settings, and focus were initially optimized and maintained constant. Ultrasound detection of bound MBs was performed using a previously described approach.^12,13 After 3 minutes to allow MB retention and washout of unbound MBs, end-systolic imaging was performed at an MI of 0.6, followed by an ultrasound burst pulse at MI of 1.9 to destroy the MBs and then end-systolic imaging 30 seconds later at MI 0.6. […]

[1] = test system: rat cremaster muscle microcirculation; assay: Intravital microscopy of MB adhesion in vivo; conditions: for MB adhesion to inflamed microcirculation: TNF-a 5 μg intrascrotal; for MB adhesion to normal or inflamed microcirculation (in words): basal or TNF-a activated
Experimental: as §1
An intravital microscopy of rat cremaster muscle microcirculation was performed after intravenous injection of 1×10^8 MBE-SEL or MBCTL (n=3 per condition). Non-inflamed: 4 hrs after intrascrotal injection of saline. Inflamed : 4 hrs after intrascrotal injection of TNF-α (5 μg). Real-time images were captured and microbubble adhesion was quantified in venules at 5 minutes after microbubble injection in 20 random fields. See, FIGS. 10A and 10B.
Microscopy of the rat cremaster muscle microcirculation was used for real-time visualization of MB adhesion in vivo. Sprague Dawley rats (100-120 g) received intrascrotal injection of either tumor necrosis factor a (n=9, 5 μg, Thermo Scientific, Waltham, Mass.) or 1 mL saline (n=9). Four hours later, the cremaster muscle was exteriorized and mounted on an inverted fluorescent microscope (Nikon TE200). Each rat received one intravenous injection (1×10^8 MB) of either MBESEL or control MBs (MBCTL or MBIgG) in […], followed by a […] ([…], 3 rats per MB type/inflammatory status combination, total 6 groups). Five minutes after injection, bright-field microscopic imaging of 20 random fields was performed to identify microvessels, and epi-illumination fluorescent imaging was performed to identify MBs, followed by pentobarbital overdose. Images were analyzed offline for MB adhesion per field of view, defined as MB immobility lasting≧30 seconds.
as §2

[2] = test system: Rat heart microvascular ECs; assay: Parallel plate perfusion chamber, MB adhesion to cultured endothelial cells; type: cell-based; conditions: for MB adhesion to inflamed (activated) ECs: IL-1b-activated ECs; for MB adhesion to inflamed (activated) ECs / MB adhesion to noninflamed (normal) ECs: 5×10^6 MB in 1 mL, wall shear rate 200 s-1; for MB adhesion to activated versus normal ECs (in words): in vitro flow chamber
Experimental: as §1
Cultured rat heart microvessel endothelial cells were placed on glass cover slips. The cells were then stimulated with IL-1β (2 ng/ml) for 4 hrs and then perfused with 1 mL microbubbles (5×10^6 /mL)-MBE-SEL or MBCTL. These microbubbles were then subjected to a wall shear rate of 200 sec-1. See, FIG. 8. 20 random fields (n=3) were assessed. […] FIGS. 9A and 9B.
A parallel plate perfusion chamber was used to quantify MB adhesion to cultured endothelial cells (ECs).12 Rat heart microvascular ECs (VEC Technologies, Rensselaer, N.Y.) were grown to confluence on 25 mm 3 75 mm glass coverslips. Cells were incubated for 5 hours with 5 ng/mL interleukin-1b (Sigma-Aldrich, St. Louis, Mo.) to cause activation. Coverslips with normal or IL-1b-activated ECs ([…]; 3/condition) were mounted in the chamber and perfused with one of the three MB species (5×10^6 MB in 1 mL culture medium) at a wall shear rate of 200 s-1, followed by an additional 3 mL of plain culture medium. The chamber was then mounted on a microscope (Nikon TE200) and 20 random bright-field images (3 100) of the ECs were captured (ORCA285, Hamamatsu, Bridgewater, N.J.). The mean number of attached MBs/ECs was counted offline.

[3] = molecular target: T2, human E-selectin on TNFα-activated HUVEC cells (human, UniProt P16581 22-610); assay: in vitro flow chamber, TNFα-activated HUVEC
T2 construct: whole, on cells
T2 sequence (looked up): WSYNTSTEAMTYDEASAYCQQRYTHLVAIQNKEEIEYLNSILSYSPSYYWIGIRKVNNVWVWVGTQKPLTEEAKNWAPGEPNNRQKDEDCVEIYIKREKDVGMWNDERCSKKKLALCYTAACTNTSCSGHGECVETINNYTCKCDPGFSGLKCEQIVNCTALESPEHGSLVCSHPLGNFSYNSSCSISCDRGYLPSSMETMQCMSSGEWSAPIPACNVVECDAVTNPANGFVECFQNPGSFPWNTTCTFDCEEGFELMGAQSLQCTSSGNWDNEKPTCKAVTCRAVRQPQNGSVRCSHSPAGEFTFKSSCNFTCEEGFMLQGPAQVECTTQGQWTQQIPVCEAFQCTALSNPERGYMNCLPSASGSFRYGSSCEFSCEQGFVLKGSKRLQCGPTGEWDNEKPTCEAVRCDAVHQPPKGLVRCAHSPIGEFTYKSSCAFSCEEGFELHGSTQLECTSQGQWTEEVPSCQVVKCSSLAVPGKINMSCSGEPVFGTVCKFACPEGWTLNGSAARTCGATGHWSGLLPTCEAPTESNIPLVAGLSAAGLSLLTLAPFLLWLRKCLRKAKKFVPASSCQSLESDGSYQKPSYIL

[4] = 15 min LAD occlusion, 4 h reflow, 2.5×10^7 MBs i.v., 3 min after injection
[5] = 4 h, 1×10^8 MB i.v., 5 min after injection

Molecule	Background-subtracted videointensity, postischemic (LAD) bed (E-selectin; [4])	Contrast enhancement of postischemic myocardium (in words) (E-selectin)	MB adhesion to inflamed microcirculation [1, 5]	MB adhesion to normal or inflamed microcirculation (in words) [1]	MB adhesion to inflamed (activated) ECs [2]	MB adhesion to activated versus normal ECs (in words) [2]	MB adhesion to activated versus normal ECs (in words) ([2]; listed as MBcontrl)	MB adhesion to noninflamed (normal) ECs [2]	Background-subtracted videointensity, nonischemic bed (E-selectin; [4])	Contrast enhancement of postischemic myocardium (in words) (E-selectin; listed as MBEsel)	Linear relationship, size of risk area vs size of region of persistent contrast enhancement (r) (E-selectin; y=0.98x-0.01)	MB adhesion to inflamed microcirculation (Example II) ([1]; activated conditions (scrotal TNF 5μg))	MB adhesion to non-inflamed microcirculation (Example II) ([1]; basal conditions)	MB adhesion to noninflamed microcirculation ([1]; saline intrascrotal, 4 h, 1×10^8 MB i.v., 5 min after injection)	MB adhesion to activated versus normal ECs (in words) ([2]; listed as MBE-SEL)	MB adhesion to activated versus normal ECs (in words) ([2]; listed as MBEsel)	binding result [3]
MBCTL: Control microbubbles linked to the 12-mer randomized AF10166 sequence (H2NWKLDTLDMIWQD-COOH) via biotin-streptavidin (also: linked to microbubbles via biotin-streptavidin, site not given here) [reference compound]	4.0±1.0 dB and 4±1 dB	not seen	1.5±0.3 MBs/field	minimal attachment; also recorded: minimal adhesion	4.1±0.6 MB/EC and 5±2 MB/EC	no difference	minimal adhesion	4±1 MB/EC	–	–	–	–	–	–	–	–	–
MBESEL: Double-layer albumin/PDLLA microbubbles conjugated with E-selectin targeting peptide AF10166 via biotin-streptavidin bridging chemistry (DITWDQLWDLMK; also: biotinylated, site not given here, on microbubble via biotin-streptavidin)	11.6±2.7 dB and 12±3 dB	persistent contrast enhancement of the previously ischemic LAD coronary artery territory	4.8±1.2 MBs/field	adhesion to inflamed circulation (arrows) but not to control, noninflamed circulation	17.4±1.8 MB/EC and 17±2 MB/EC	–	–	5.9±3.4 MB/EC and 5±3 MB/EC	3.6±0.8 dB and 4±1 dB	higher	0.92	96±23 MB/field	34±8 MB/field	1.7±0.4 MBs/field	superior binding	greater adhesion	–
B1	–	–	–	–	–	–	–	–	–	–	–	–	–	–	–	–	binds
B2	–	–	–	–	–	–	–	–	–	–	–	–	–	–	–	–	binds
